Experimental data from PMC12621189, “Optimization of Selective and CNS Penetrant Alkyne-Based TREK Inhibitors: The Discovery and Characterization of ONO-9517601 (VU6022856) and ONO-7927846 (VU6024391)” (Journal of Medicinal Chemistry, 2025).

How the values were obtained:
[1] = Rat in vivo PK (plasma clearance) in SAR tables; conditions: read-out: Rat CLp
[2] = Liver microsome intrinsic clearance, human; format: in vitro ADME; conditions: pH 7.4; human liver microsomes, predicted intrinsic clearance; read-out: LMS CLINT human
Protocol: were incubated in 100 mM potassium phosphate pH 7.4 buffer with 3 mM MgCl2 at 37 °C with constant shaking. After a 5 min preincubation, the reaction was initiated by the addition of NADPH (1 mM). At selected time intervals (0, 3, 7, 15, 25, and 45 min), aliquots were taken and subsequently placed into a 96-well plate containing cold acetonitrile with internal standard (50 ng/mL carbamazepine). Plates were then centrifuged at 3000 rcf (4 °C) for 10 min, and the supernatant was transferred to a separate 96-well plate and diluted 1:1 with water for LC/MS/MS analysis. The in vitro half-life ( 1/2, min, Eq. 1), intrinsic clearance (CLint, mL/min/kg, Eq. 2), and subsequent predicted hepatic clearance (CLhep, mL/min/kg, Eq. 3) was determined employing the […]
where k represents the slope from linear regression analysis of the natural log percent remaining of a test compound as a function of incubation time […]
(2) CLint = in vitroT x mg microsomes x gram liver x kg body wt ascale-up factors: of 20 (human) or 45 (rat) […]
where Qh (hepatic blood flow, mL/min/kg) is 21 (human) or 70 (rat).
LC/MS/MS Bioanalysis of Samples from Plasma Protein Binding and Intrinsic Clearance […]
Samples were analyzed on a Thermo Electron TSQ Quantum Ultra triple quad mass spectrometer (San Jose, CA) via electrospray ionization (ESI) with two Themo Electron Accella pumps (San Jose, CA), and a Leap Technologies CTC PAL autosampler (Carrboro, NC). Analytes were […]

[3] = Liver microsome intrinsic clearance, mouse; format: in vitro ADME; conditions: pH 7.4; mouse liver microsomes, predicted intrinsic clearance; read-out: LMS CLINT mouse
human TREK-1 (hTREK-1) = target: T1, human TREK-1 (hTREK-1) (Homo sapiens, UniProt O95069); assay: TREK-1 thallium flux assay (CHO-K1 cells stably expressing hTREK-1); format: cell-based; conditions: human TREK-1, thallium flux; read-out: h TREK-1 Tl+ IC50
T1 construct: expressed in transfected cells
T1 sequence (O95069 1-426): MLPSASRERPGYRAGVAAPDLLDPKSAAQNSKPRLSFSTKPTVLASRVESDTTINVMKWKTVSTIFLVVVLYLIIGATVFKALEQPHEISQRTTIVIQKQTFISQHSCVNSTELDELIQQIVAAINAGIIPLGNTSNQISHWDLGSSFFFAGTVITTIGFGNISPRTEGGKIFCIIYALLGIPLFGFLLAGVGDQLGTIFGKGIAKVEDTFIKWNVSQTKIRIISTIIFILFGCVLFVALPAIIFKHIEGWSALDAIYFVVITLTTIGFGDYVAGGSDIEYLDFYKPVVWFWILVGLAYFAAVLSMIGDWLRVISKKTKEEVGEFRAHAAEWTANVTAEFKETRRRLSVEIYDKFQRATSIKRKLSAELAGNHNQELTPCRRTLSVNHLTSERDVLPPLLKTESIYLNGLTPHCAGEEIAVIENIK
Protocol: Procedures for Biological Experiments
TREK-1 Thallium flux assay
CHO-K1 cells stably expressing hTREK-1 were cultured in T225 flask. The cells were loaded with FluxOR dye and plated in 384 well plate at the experiment day. Test compounds or control compound (tert-butyl (3-((4-(benzyloxy)-2-methylphenyl)carbamoyl)-4-chlorophenyl)carbamate) or 0.3% DMSO (vehicle control) were added directly to the cell plates and incubated for 10 min, and then treated with thallium stimulus buffer to initiate thallium flux.
To measure the efficacy and potency of test compounds, the change in fluorescence intensity (ΔRatio) and % inhibition were calculated using the following equations:
ΔRatio = (fluorescence intensity at 25 seconds after thallium addition)/(average of fluorescent intensity before thallium addition)
0.3% DMSO - ΔRatio of 10 μM control compound)}x100
% inhibition vs compound concentration were plotted in XLfit and calculated IC50.
CHO-K1 cells stably expressing human TREK-1 (hTREK-1) were cultured in T225 flask.
The cells were loaded with FluxOR dye and plated in 384 well plate at the experiment day. Test compounds or control compound (tert-butyl (3-((4-(benzyloxy)-2-methylphenyl)carbamoyl)-4-chlorophenyl)carbamate) or 0.3% DMSO (vehicle control) which were prepared on separate plates were added to the cell plates and incubated for 10 min, and then the cells with test compounds or […]
chlorophenyl)carbamate) or 0.3% DMSO (vehicle control) were treated with thallium stimulus buffer to initiate thallium flux. To measure the efficacy and potency of test compounds, the change in fluorescence intensity (ΔRatio) and % inhibition were calculated using the following equations: […]

ChromatoLogD = format: physicochemical
[4] = Rat brain to plasma ratio (Kp, Kp,uu); format: in vivo; conditions: male, Sprague Dawley, brain and plasma, intravenous, 0.2 mg/kg; rat brain:plasma
Protocol: Determination of brain to plasma ratio:
All animal study procedures were approved by the Institutional Animal Care and Use Committee and were conducted in accordance with the National Institutes of Health regulations of animal care covered in Principles of Laboratory Animal Care (National Institutes of Health). All rats were fasted overnight prior to testing.
For determination of the brain over plasma ratio (Kp), compounds were formulated in 8% ethanol, 32% PEG400 and 60% DMSO (v/v/v) and administered as a single 0.2 mg/kg IV dose (1 mL/kg) to male, Sprague Dawley rats (n = 1) via injection into a surgically-implanted jugular vein catheter. At 15 min post dosing, blood sample was collected into chilled, K2EDTA anticoagulant-fortified tube and immediately placed on wet ice. The blood sample was then centrifuged (1700 rcf, 5 minutes, 4 °C) to obtain plasma sample. At the same post-administration time point, whole brain sample was obtained by rapid dissection, rinsed with PBS, and immediately frozen in individual tissue collection box (dry ice). All brain and plasma samples were stored at -80 °C until […]
Sample Analysis: Concentrations in plasma and brain homogenates were quantified by liquid chromatography tandem mass spectrometry (LC-MS/MS). Whole brains were homogenized in 3 mL of 70:30 IPA:water in a mini bead beater for 3 min, and centrifuged at 3,500 g for 5 min. 5 uL of the supernatant was diluted in 15 uL of blank plasma for quantification of the analytes. Plasma samples were centrifuged at 3,500 g for 5 min. A standard curve was generated by diluting the analytes DMSO stocks with blank plasma to obtain a final concentration of 10,000 ng/ml followed by a serial dilution down to 0.5 ng/ml. Quality controls were generated by a serial dilution of the 5,000 ng/ml standard curve solution in blank plasma to obtain 3 concentrations of 500, 50, and 5 ng/ml. 20 uL of brain diluted in plasma, plasma, blank plasma, standard curve and QC samples were loaded in a V-bottom 96-well plate. 120 uL of acetonitrile containing 0.05 uM carbamazepine (internal standard) was added to each well and the plate was centrifuged at 3,500 g for 5 min. 60 uL of the supernatant of each well (protein free) was transferred to a new 96-well plate containing 60 uL of water. The plates were sealed for analysis by LC-MS/MS.
Plasma and brain tissue samples originating from in vivo studies were analyzed by electrospray ionization using an AB Sciex Q-TRAP 5500 (Foster City, CA) that was coupled to a Shimadzu LC-20AD pump (Columbia, MD) and a Leap Technologies CTC PAL auto-sampler (Carrboro, NC). Analytes were separated by gradient elution using a C18 column (3 x 50 mm, 3 mm; Fortis Technologies Ltd, Cheshire, UK) that was thermostated at 40 °C. HPLC mobile phase A was 0.1% formic acid in water (pH unadjusted); mobile phase B was 0.1% formic acid in acetonitrile (pH […]
min, with an isocratic hold for 0.5 min, before transitioning to 10% B over 0.05 min. The column was re-equilibrated (1 min) before the next sample injection. The total run time was 2.55 min, and the HPLC flow rate was 0.5 ml/min. The source temperature was set at 500 °C, and mass spectral analyses were performed using a Turbo-Ion spray source in positive ionization mode (5.0-kV spray voltage) and using multiple-reaction monitoring of transitions specific for the analytes. All data were analyzed using AB Sciex Analyst 1.5.1 software.
Brain plasma concentration ratio (Kp) was calculated by dividing brain concentration by plasma concentration for each animal. Unbound brain to unbound plasma concentration ratio (Kp,uu) is calculated using the following formula: Kp,uu = (Brain ng/g x brain fu)/(plasma ng/ml x plasma fu).
In-vitro determination of blood-brain barrier penetration potential
Blood-brain barrier penetration was determined using MDR1-MDCK cell monolayers by Absorption Systems, following their protocol. In short, compounds were incubated at […] final concentration on one side of the cell monolayer for 2 hours. […]

mouse TREK-1 (mTREK-1) = target: T2, mouse TREK-1 (mTREK-1) (Mus musculus, UniProt P97438); assay: mTREK-1 manual patch clamp assay; format: cell-based; conditions: mouse TREK-1, manual patch clamp; read-out: TREK-1 IC50 (mouse, MPC)
T2 construct: expressed in transfected cells; host or cells: CHO-K1 (transient)
T2 sequence (P97438 1-426): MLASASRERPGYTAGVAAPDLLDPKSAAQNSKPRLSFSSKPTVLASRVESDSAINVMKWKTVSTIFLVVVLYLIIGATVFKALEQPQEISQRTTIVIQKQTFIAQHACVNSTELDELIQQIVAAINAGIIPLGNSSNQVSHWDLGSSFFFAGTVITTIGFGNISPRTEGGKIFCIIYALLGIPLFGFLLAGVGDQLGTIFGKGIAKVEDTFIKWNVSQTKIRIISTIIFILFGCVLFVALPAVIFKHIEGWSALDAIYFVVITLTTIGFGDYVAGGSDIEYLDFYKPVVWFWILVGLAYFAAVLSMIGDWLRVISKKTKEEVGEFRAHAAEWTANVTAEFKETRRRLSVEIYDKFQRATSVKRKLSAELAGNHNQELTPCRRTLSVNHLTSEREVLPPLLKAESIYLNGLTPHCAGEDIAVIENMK
Protocol: (§1) hTREK-1 and mTREK-1 patch clamp assay
(§2) CHO-K1 cells stably expressing hTREK-1 or CHO-K1 cells transiently expressing mouse TREK-1 (mTREK-1) were plated on glass coverslips, and voltage clamped in the whole-cell configuration of the patch clamp technique. Cells were voltage clamped at a holding potential of - 80 mV and the stepped to 0 mV for 500 msec. The voltage was subsequently ramped from -120mV to +80 mV over a 500 msec duration. This step-ramp protocol was repeated every 10 sec. The bathing solution contained the following: 135 mM NaCl, 5 mM KCl, 2 mM CaCl2, 1 mM MgCl2, 5 mM D-Glucose, 10 mM HEPES, 10 mM sucrose (adjusted to pH 7.4 with NaOH, 300 mosmol/kg H2O). The pipette solution contained the following: 135 mM KCl, 2 mM MgCl2, 1 mM EGTA, 10 mM HEPES, 2 mM Na2ATP (adjusted to pH 7.35 with KOH, 285 mosmol/kg H2O). Test […]
(§3) compounds were dissolved into the bathing solution. The effects of test compound on the currents were calculated at 0 mV using the following equations:
(§4) % inhibition = (1-post current/pre current) x 100
(§5) % inhibition vs compound concentrations were plotted in GraphPad Prism and calculated IC50. […]

hTREK-1 = target: T3, hTREK-1 (Homo sapiens, UniProt O95069); assay: hTREK-1 manual patch clamp assay; format: cell-based; conditions: human TREK-1, manual patch clamp; read-out: TREK-1 IC50 (human, MPC)
T3 construct: expressed in transfected cells
T3 sequence (O95069 1-426): T1 sequence (O95069 1-426)
Protocol: as §1, §2, §3, §4, §5

clearance [1]	CLint scaled at 1 µM [2]	CLint scaled at 1 µM [3]	IC50 (human TREK-1 (hTREK-1))	chromatographic logD (ChromatoLogD)	Kp at 15 min [4]	IC50 (mouse TREK-1 (mTREK-1))	IC50 (hTREK-1)	Compound
328 mL/min/kg	18 mL/min/kg	75 mL/min/kg	320 nM	4.03	0.84			Cc1cc(C#Cc2ccccc2)cnc1NC(=O)c1cc(C(=O)N2CC(F)(F)C2)ccc1Cl [Compound 13a, 2-Chloro-5-(3,3-difluoroazetidine-1-carbonyl)-N-[3-methyl-5-(2-phenylethynyl)-2-pyridyl]benzamide]
16.2 mL/min/kg	36 mL/min/kg	107 mL/min/kg	130 nM	4.14	0.89			Cc1cc(C#Cc2ccccc2)cnc1NC(=O)c1cc(OCC2COCCO2)ccc1Cl (stereo not shown) [Compound 13c, 2-Chloro-5-(1,4-dioxan-2-ylmethoxy)-N-[3-methyl-5-(2-phenylethynyl)-2-pyridyl]benzamide]
			110 nM	4.14		1200 nM	11 nM	Cc1cc(C#Cc2ccccc2)cnc1NC(=O)c1cc(OC[C@H]2COCCO2)ccc1Cl [Compound 13d, (R)-5-((1,4-Dioxan-2-yl)methoxy)-2-chloro-N-(3-methyl-5-(phenylethynyl)pyridin-2-yl)benzamide]
